Results as given in PubChem BioAssay AID276 (DTP/NCI, 2004).
Several values for one entry are separate records, joined by “and”; a condition that tells them apart may be missing. Equal entries are not always repeated. Toxic doses and inconclusive results are not listed. How the source made its calls: active means survival T/C of 150% or more; inactive means T/C below 125% in these data.

System: B6C3F1 mice, Lewis lung carcinoma iv, survival T/C
Assay: NCI In Vivo Anticancer Drug Screen. Data for tumor model Lewis Lung Carcinoma (intravenous) in B6C3F1 mice
Details: endpoint: median survival time, higher = longer survival
Outline: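 Transplantable tumor in mice; compound treated vs vehicle controls; read-out survival; value = treated/control (T/C).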

[1] = dose: 25.0 mg/kg/injection, schedule: Q01DX009 (ip), vehicle: saline
[2] = dose: 50.0 mg/kg/injection, schedule: Q01DX009 (ip), vehicle: saline
[3] = dose: 100.0 mg/kg/injection, schedule: Q01DX009 (ip), vehicle: saline
[4] = dose: 200.0 mg/kg/injection, schedule: Q01DX009 (ip), vehicle: saline
[5] = dose: 0.5 mg/kg/injection, schedule: Q01DX009 (ip), vehicle: saline
[6] = dose: 1.0 mg/kg/injection, schedule: Q01DX009 (ip), vehicle: saline
[7] = dose: 2.0 mg/kg/injection, schedule: Q01DX009 (ip), vehicle: saline
[8] = dose: 25.0 mg/kg/injection, schedule: Q01DX009 (ip), vehicle: saline with Tween-80
[9] = dose: 50.0 mg/kg/injection, schedule: Q01DX009 (ip), vehicle: saline with Tween-80
[10] = dose: 100.0 mg/kg/injection, schedule: Q01DX009 (ip), vehicle: saline with Tween-80
[11] = dose: 200.0 mg/kg/injection, schedule: Q01DX009 (ip), vehicle: saline with Tween-80
[12] = dose: 400.0 mg/kg/injection, schedule: Q01DX009 (ip), vehicle: saline with Tween-80
[13] = dose: 12.5 mg/kg/injection, schedule: Q01DX009 (ip), vehicle: saline with Tween-80

Measured: T/C

N#CC(=C1SCS1)[N+](=O)[O-]
inactive: dose: 0.37 mg/kg/injection, schedule: Q01DX009 (ip), vehicle: saline with Tween-80 98 % of control | dose: 0.75 mg/kg/injection, schedule: Q01DX009 (ip), vehicle: saline with Tween-80 107 % of control | dose: 1.5 mg/kg/injection, schedule: Q01DX009 (ip), vehicle: saline with Tween-80 106 % of control | dose: 3.0 mg/kg/injection, schedule: Q01DX009 (ip), vehicle: saline with Tween-80 109 % of control | dose: 6.0 mg/kg/injection, schedule: Q01DX009 (ip), vehicle: saline with Tween-80 106 % of control | dose: 12.0 mg/kg/injection, schedule: Q01DX009 (ip), vehicle: saline with Tween-80 92 % of control

N#C[C@H](OC1OC(COC2OC(CO)C(O)C(O)C2O)C(O)C(O)C1O)c1ccccc1 (some centres undefined)
inactive: [1] 111 % of control | [2] 95 % of control | [3] 95 % of control | [4] 92 % of control | dose: 400.0 mg/kg/injection, schedule: Q01DX009 (ip), vehicle: saline 97 % of control | dose: 800.0 mg/kg/injection, schedule: Q01DX009 (ip), vehicle: saline 101 % of control

O=C1C(NCC(O)CO)=C(N2CC2)C(=O)C(NCC(O)CO)=C1N1CC1 (centres undefined)
inactive: [5] 100 % of control | [6] 98 % of control | [7] 108 % of control | dose: 4.0 mg/kg/injection, schedule: Q01DX009 (ip), vehicle: saline 116 % of control

C[n+]1cccc(NC(=O)c2ccc(NC(=O)C34CCC(C(=O)Nc5ccc(C(=O)Nc6ccc[n+](C)c6)cc5)(CC3)CC4)cc2)c1
inactive: dose: 5.0 mg/kg/injection, schedule: Q01DX009 (ip), vehicle: saline with Tween-80 106 % of control | dose: 10.0 mg/kg/injection, schedule: Q01DX009 (ip), vehicle: saline with Tween-80 122 % of control

O=C(O)CCCCCCCC(=O)O
inactive: dose: 12.5 mg/kg/injection, schedule: Q01DX009 (ip), vehicle: distilled water + Tween-80 100 % of control | dose: 25.0 mg/kg/injection, schedule: Q01DX009 (ip), vehicle: distilled water + Tween-80 99 % of control | dose: 50.0 mg/kg/injection, schedule: Q01DX009 (ip), vehicle: distilled water + Tween-80 100 % of control | dose: 100.0 mg/kg/injection, schedule: Q01DX009 (ip), vehicle: distilled water + Tween-80 98 % of control

Cc1c(N)nc([C@H](CC(N)=O)NC[C@H](N)C(N)=O)nc1C(=O)N[C@H](C(=O)N[C@H](C)[C@@H](O)CC(=O)N[C@H](C(=O)NC(O[C@@H]1O[C@@H](C)[C@@H](N)[C@@H](O)[C@H]1O)C(O)c1nc(-c2nc(C(=O)NCCCCN)cs2)cs1)[C@@H](C)O)[C@@H](O[C@@H]1O[C@@H](CO)[C@@H](O)[C@H](O)[C@@H]1O[C@H]1O[C@H](CO)[C@@H](O)[C@H](OC(N)=O)[C@@H]1O)c1c[nH]cn1 (some centres undefined)
active: dose: 8.0 mg/kg/injection, schedule: Q01DX009 (ip), vehicle: saline 176 % of control
inactive: [7] 123 % of control

CC(C)CCC(=O)c1ccoc1
inactive: dose: 0.12 mg/kg/injection, schedule: Q03HX027 (ip), vehicle: saline with Tween-80 99 % of control | dose: 0.25 mg/kg/injection, schedule: Q03HX027 (ip), vehicle: saline with Tween-80 97 % of control | dose: 0.5 mg/kg/injection, schedule: Q03HX027 (ip), vehicle: saline with Tween-80 109 % of control | dose: 1.0 mg/kg/injection, schedule: Q03HX027 (ip), vehicle: saline with Tween-80 117 % of control

CC(=O)Nc1cscc1NC(C)=O
inactive: [8] 103 % of control | [9] 101 % of control and 106 % of control | [10] 98 % of control | [11] 94 % of control and 108 % of control | [12] 112 % of control and 88 % of control

COc1cc([C@@H]2c3cc4c(cc3[C@@H](OC3OC5COC(C)OC5C(O)C3O)[C@H]3COC(=O)[C@H]23)OCO4)cc(OC)c1O (some centres undefined)
inactive: dose: 0.5 mg/kg/injection, schedule: Q01DX009 (ip), vehicle: Klucel (hydroxypropylcellulose) (HPC) 101 % of control | dose: 1.0 mg/kg/injection, schedule: Q01DX009 (ip), vehicle: Klucel (hydroxypropylcellulose) (HPC) 102 % of control | dose: 2.0 mg/kg/injection, schedule: Q01DX009 (ip), vehicle: Klucel (hydroxypropylcellulose) (HPC) 113 % of control | dose: 2.0 mg/kg/injection, schedule: Q01DX009 (ip), vehicle: suspension in saline 113 % of control and 121 % of control | dose: 4.0 mg/kg/injection, schedule: Q01DX009 (ip), vehicle: Klucel (hydroxypropylcellulose) (HPC) 124 % of control | dose: 4.0 mg/kg/injection, schedule: Q01DX009 (ip), vehicle: suspension in saline 109 % of control
active: dose: 8.0 mg/kg/injection, schedule: Q01DX009 (ip), vehicle: suspension in saline 151 % of control | dose: 16.0 mg/kg/injection, schedule: Q01DX009 (ip), vehicle: suspension in saline 166 % of control and 252 % of control

[Cl][Pt][Cl].[NH-]C(CO)C(=O)O (centres undefined)
inactive: dose: 6.25 mg/kg/injection, schedule: Q01DX009 (ip), vehicle: water 101 % of control | dose: 12.5 mg/kg/injection, schedule: Q01DX009 (ip), vehicle: water 111 % of control | dose: 25.0 mg/kg/injection, schedule: Q01DX009 (ip), vehicle: water 105 % of control | dose: 50.0 mg/kg/injection, schedule: Q01DX009 (ip), vehicle: water 110 % of control

O=C1C(NCCO)=C(N2CC2)C(=O)C(NCCO)=C1N1CC1
inactive: dose: 0.06 mg/kg/injection, schedule: Q01DX009 (ip), vehicle: saline 103 % of control | dose: 0.12 mg/kg/injection, schedule: Q01DX009 (ip), vehicle: saline 97 % of control | dose: 0.25 mg/kg/injection, schedule: Q01DX009 (ip), vehicle: saline 106 % of control | [5] 108 % of control | [6] 106 % of control

CCSC(=O)N1c2ccc(OC)cc2C=CC1C#N (centres undefined)
inactive: [13] 98 % of control | [8] 113 % of control | [9] 99 % of control | [10] 104 % of control | [11] 110 % of control | [12] 108 % of control

CC(=O)OCC1OC(n2ccc(N)nc2=O)C(OC(C)=O)C1OC(C)=O (centres undefined)
inactive: dose: 12.5 mg/kg/injection, schedule: Q01DX009 (ip), vehicle: saline 92 % of control | [1] 100 % of control | [2] 101 % of control | [3] 115 % of control | [4] 115 % of control

O=NN(CCF)C(=O)NC1C(O)CCCC1O (centres undefined)
inactive: dose: 2.5 mg/kg/injection, schedule: Q01DX009 (ip), vehicle: saline 116 % of control | dose: 20.0 mg/kg/injection, schedule: Q01DX009 (ip), vehicle: saline 104 % of control
active: dose: 10.0 mg/kg/injection, schedule: Q01DX009 (ip), vehicle: saline 312 % of control

CC1=NNC(=O)C1CCO (centres undefined)
inactive: dose: 6.25 mg/kg/injection, schedule: Q01DX009 (ip), vehicle: Klucel (hydroxypropylcellulose) (HPC) 104 % of control | dose: 12.5 mg/kg/injection, schedule: Q01DX009 (ip), vehicle: Klucel (hydroxypropylcellulose) (HPC) 96 % of control | dose: 25.0 mg/kg/injection, schedule: Q01DX009 (ip), vehicle: Klucel (hydroxypropylcellulose) (HPC) 108 % of control | dose: 50.0 mg/kg/injection, schedule: Q01DX009 (ip), vehicle: Klucel (hydroxypropylcellulose) (HPC) 92 % of control and 99 % of control | dose: 200.0 mg/kg/injection, schedule: Q01DX009 (ip), vehicle: Klucel (hydroxypropylcellulose) (HPC) 98 % of control and 108 % of control | dose: 400.0 mg/kg/injection, schedule: Q01DX009 (ip), vehicle: Klucel (hydroxypropylcellulose) (HPC) 112 % of control

O=[n+]1c2ccccc2n([O-])c2ccccc21.[Cl][Ni][Cl]
inactive: dose: 1.56 mg/kg/injection, schedule: Q01DX009 (ip), vehicle: saline with Tween-80 93 % of control | dose: 3.12 mg/kg/injection, schedule: Q01DX009 (ip), vehicle: saline with Tween-80 93 % of control | dose: 6.25 mg/kg/injection, schedule: Q01DX009 (ip), vehicle: saline with Tween-80 90 % of control | [13] 97 % of control | [8] 97 % of control

COc1ccc(CC2C(=O)NC(C)C(=O)N(C)C3Cc4ccc(cc4)Oc4cc(ccc4O)CC(C(=O)NC(C)C(=O)NC(C)C(=O)N2C)N(C)C3=O)cc1 (centres undefined)
inactive: dose: 0.25 mg/kg/injection, schedule: Q01DX009 (ip), vehicle: saline with Tween-80 110 % of control | dose: 0.5 mg/kg/injection, schedule: Q01DX009 (ip), vehicle: saline with Tween-80 107 % of control | dose: 1.0 mg/kg/injection, schedule: Q01DX009 (ip), vehicle: saline with Tween-80 106 % of control | dose: 2.0 mg/kg/injection, schedule: Q01DX009 (ip), vehicle: saline with Tween-80 106 % of control
